Test results from patent US20130085133A1, “ANTI-VIRAL TREATMENT AND ASSAY TO SCREENFOR ANTI-VIRAL AGENT” (Sourthern Research Institute Office of Commercialization …, priority 2010, published 2013).

How the values were obtained:
[1] = cytotoxicity assay (percent viability of HEp-2 cells, Cell Titer-Glo); conditions: human, HEp-2 cells
[2] = system: respiratory syncytial virus (RSV) strain Long; assay: microbe, parasite or virus in culture; conditions: human respiratory syncytial virus, HEp-2, 144 h

Row | SMILES | CC50 at 6 days [1] | EC50 [2]
1 | Oc1ccc(O)cc1 [AB00053361] | > 50 µM | 47.9 µM
2 | Cc1ccc(-c2nc3cc(N)ccc3o2)cc1Br [AB00076694] | > 25 µg/mL | 16.4 µg/mL
3 | NC(=O)c1ccccc1NC(=O)CSc1nc2ccccc2o1 [AB00132114] | > 25 µg/mL | 20.7 µg/mL
4 | Cn1cnnc1SCC(=O)N1c2ccccc2Sc2ccc(C(F)(F)F)cc21 [AB00139215] | > 25 µg/mL | 10.9 µg/mL
5 | O=c1[nH]c(=O)n(Cc2ccc([N+](=O)[O-])cc2)cc1F [AB00173190] | > 50 µM | 21 µM
6 | Cc1ccc(C)n1-c1ccc(C(=O)O)cc1 [AB00275199] | > 25 µg/mL | 13 µg/mL
7 | Oc1cccc2ccc(N3CCOCC3)nc12 [AB00275625] | > 25 µg/mL | 15.2 µg/mL
8 | O=C(c1ccc(O)cc1O)c1ccc(O)cc1O [AB00275918] | > 25 µg/mL | 20.5 µg/mL
9 | Cc1cnc(NC(=O)c2ccc(Cl)cc2Cl)s1 [AB00276221] | > 25 µg/mL | 17.6 µg/mL
10 | O=C(N1CCCC1)N1c2ccccc2CCc2ccccc21 [AB00276381] | > 25 µg/mL | 12.2 µg/mL
11 | O=C(Nc1cccc(C(F)(F)F)c1)c1ccccc1Cl [AB00276634] | > 25 µg/mL | 15.8 µg/mL
12 | O=c1[nH]cnc2sc3c(c12)CCCCC3 [AB00276706] | > 25 µg/mL | 19.6 µg/mL
13 | Cc1ccc2c(ccc3nc(C)ccc32)n1 [AB00278348] | > 25 µg/mL | 12.6 µg/mL
14 | CC(=O)CCc1c(C)nc2ccc(Br)cc2c1S [AB00279343] | > 25 µg/mL | 20.7 µg/mL
15 | CC(=O)CCc1c(O)nc2ccccc2c1C [AB00279389] | > 25 µg/mL | 14.2 µg/mL
16 | Cc1nc(N)sc1-c1csc(Nc2ccccn2)n1 [AB00280085] | > 25 µg/mL | 18.9 µg/mL
17 | O=C(Nc1ccc(Nc2ccccc2)cc1)c1ccccc1F [AB00282102] | > 25 µg/mL | 12 µg/mL
18 | CCOC(=O)c1ccc(NC(=O)CN(c2ccccc2Br)S(C)(=O)=O)cc1 [AB00282821] | > 25 µg/mL | 14.5 µg/mL
19 | O=c1cnnc(N/N=C/c2ccccc2Br)[nH]1 [AB00283422] | > 25 µg/mL | 15.8 µg/mL
20 | Cc1cc(C)cc(OCC(O)CNC(C)c2ccccc2)c1 (stereo not shown) [AB00283699] | > 25 µg/mL | 12.9 µg/mL
21 | Cc1ccccc1C(=O)Nc1sc2c(c1C(=O)N1CCN(Cc3ccccc3)CC1)CCCCC2 [AB00284323] | > 25 µg/mL | 17.5 µg/mL
22 | Cc1ccc2nc(SCCC#N)nc(C)c2c1 [AB00284847] | > 25 µg/mL | 22.5 µg/mL

Row | SMILES | CC50 at 6 days [1] | EC50 [2]
23 | O=C(O)c1ccc(-c2cccc(Cl)c2Cl)o1 [AB00287600] | > 25 µg/mL | 12.7 µg/mL
24 | COc1ccc(-c2cn3cccnc3n2)cc1 [AB00288908] |  | 21.6 µg/mL
25 | CCOc1ccccc1OCCOCCOc1cccc2cccnc12 [AB00289145] | > 25 µg/mL | 24.2 µg/mL
26 | COc1ccccc1OCC(=O)Nc1ccc(Br)cc1C(=O)O [AB00290004] | > 25 µg/mL | 23.2 µg/mL
27 | CNC(=O)Nc1ccccc1C(=O)Nc1ccc(C)cc1 [AB00290142] | > 25 µg/mL | 19.4 µg/mL
28 | CCCCSc1nc(=O)c(C(c2ccccc2)c2ccccc2)c(O)[nH]1 [AB00291408] | > 25 µg/mL | 24.2 µg/mL
29 | CCOc1ccc(NC(=O)CSC2=C(C#N)C(c3ccncc3)C(C(=O)Nc3ccccc3)=C(C)N2)cc1 (stereo not shown) [AB00292155] | > 25 µg/mL | 15.7 µg/mL
30 | COc1cc(-c2nnc(SCc3cc(Cl)cc(Cl)c3)o2)cc(OC)c1OC [AB00292171] | > 25 µg/mL | 7.64 µg/mL
31 | COc1ccc(NC(=O)CN2c3cccc4cccc(c34)S2(=O)=O)c(OC)c1 [AB00293237] | > 25 µg/mL | 10.3 µg/mL
32 | CC(=O)c1ccc2c3c(ccc(O)c13)CC2 [AB00293238] | > 25 µg/mL | 11.4 µg/mL
33 | Cc1cc(C)cc(NC(=O)c2cccc(NC(=O)c3ccco3)c2)c1 [AB00293678] | > 25 µg/mL | 18.6 µg/mL
34 | Cc1ccc2nc(-c3ccccc3)c(CN3CCCC3)c(O)c2c1 [AB00293683] | > 25 µg/mL | 18.8 µg/mL
35 | Fc1cccc(COc2ccc(C(=S)N3CCOCC3)cc2)c1 [AB00293926] | > 25 µg/mL | 10.8 µg/mL
36 | NC(=O)CC1Nc2ccccc2NC1=O (stereo not shown) [AB00294484] | > 25 µg/mL | 16.4 µg/mL
37 | O=C(Nc1ccc2oc(-c3ccccc3Br)nc2c1)c1ccco1 [AB00294890] | > 25 µg/mL | 22.5 µg/mL
38 | CCn1c(COc2ccccc2OC)nc2ccccc21 [AB00296345] | > 25 µg/mL | 18.9 µg/mL
39 | COc1cc([N+](=O)[O-])ccc1NC(=O)C1CC(Cl)=CCC1C(=O)O (stereo not shown) [AB00296680] | > 25 µg/mL | 12.9 µg/mL
40 | Cc1ccc(-c2csc3nc[nH]c(=O)c23)cc1C [AB00297372] | > 25 µg/mL | 10.9 µg/mL
41 | Cc1ccc(C(=O)Nc2ccc(OC(C)C)cc2)cc1C [AB00297482] | > 25 µg/mL | 14.1 µg/mL
42 | Cc1ccc(S(=O)(=O)NC2CCCC(C(=O)Oc3ccc4c(c3)oc(=O)c3ccccc34)C2)cc1 (stereo not shown) [AB00297971] | > 25 µg/mL | 19.2 µg/mL
43 | Cc1ccc(S(=O)(=O)NC(C(=O)Oc2ccc3c(c2)oc(=O)c2ccccc23)c2ccccc2)cc1 (stereo not shown) [AB00297982] | > 25 µg/mL | 11 µg/mL
44 | CCC(Oc1ccc(-c2ccc(C)cc2)cc1)C(=O)OC (stereo not shown) [AB00298660] | > 25 µg/mL | 13.5 µg/mL

Row | SMILES | CC50 at 6 days [1] | EC50 [2]
45 | COc1ccc(C(=O)N2CCC(C(=O)Nc3cccc(C(F)(F)F)c3)CC2)cc1 [AB00298665] | > 25 µg/mL | 12.1 µg/mL
46 | O=C(C1CCN(S(=O)(=O)c2ccccc2)CC1)N1CCc2ccccc2C1 [AB00298862] | > 25 µg/mL | 20.4 µg/mL
47 | COC(=O)Cc1ccc2c3ccccc3n(C)c2c1 [AB00299031] | > 25 µg/mL | 21.7 µg/mL
48 | CC1=CC(C)(C)Nc2ccc(OC(=O)C(Cc3ccccc3)N3C(=O)C4CCCCC4C3=O)cc21 (stereo not shown) [AB00299290] | > 25 µg/mL | 15.8 µg/mL
49 | Cc1nc(Nc2ccccc2Cl)sc1C(=O)Nc1ccccc1 [AB00299380] | > 25 µg/mL | 10.4 µg/mL
50 | O=C(Nc1ccc(F)c(Cl)c1)C1CCN(C(=O)c2ccc(Cl)cc2)CC1 [AB00299386] | > 25 µg/mL | 12.3 µg/mL
51 | COc1ccc(C(=O)N2CCC(C(=O)Nc3cccc(Br)c3)CC2)cc1 [AB00299547] | > 25 µg/mL | 18.1 µg/mL
52 | C=CCNC(=O)COc1ccc(Br)cc1C [AB00299924] | > 25 µg/mL | 22.4 µg/mL
53 | O=C(O)c1ccc(NC(=S)NC(=O)c2ccc(-c3ccc(Br)cc3)o2)cc1 [AB00301183] | > 25 µg/mL | 22.6 µg/mL
54 | COc1ccccc1C(=O)N(CCCCN1C(=O)c2ccccc2C1=O)c1ccc(Cl)cc1 [AB00301352] | > 25 µg/mL | 21.1 µg/mL
55 | O=C1c2ccccc2C(=O)N1CCCCN(C(=O)c1ccccc1[N+](=O)[O-])c1ccc(Cl)cc1 [AB00301378] | > 25 µg/mL | 17.8 µg/mL
56 | Cc1ccc(N(CCCCN2C(=O)c3ccccc3C2=O)C(=O)c2cccc(C)c2)cc1 [AB00302020] | > 25 µg/mL | 15.1 µg/mL
57 | COCCNC(=O)Nc1ccc2nc(-c3cccs3)c(-c3cccs3)nc2c1 [AB00302454] | > 25 µg/mL | 15.3 µg/mL
58 | COC(=O)c1ccc(NC(=O)c2ccc(C)c(Br)c2)cc1 [AB00302921] | > 25 µg/mL | 20.3 µg/mL
59 | O=S1(=O)N=C(Nc2ccc3c4c(cccc24)CC3)c2ccccc21 [AB00304418] | > 25 µg/mL | 10.7 µg/mL
60 | Cc1sc(NC(=O)CCc2ccccc2)c(C(=O)O)c1C [AB00304690] | > 25 µg/mL | 13.2 µg/mL
61 | Cc1cccc(C(=O)Nc2cc(C(C)C)c(O)cc2C)c1 [AB00305611] | > 25 µg/mL | 17.1 µg/mL
62 | c1ccc(-c2cc3c(N4CCN(c5ccccc5)CC4)ncnc3s2)cc1 [AB00306917] | > 25 µg/mL | 17.3 µg/mL
63 | O=C1c2ccccc2C(=O)N1CCc1nc2ccccc2c(=O)n1-c1cc(Cl)ccc1Cl [AB00307079] | > 25 µg/mL | 14.3 µg/mL
64 | COc1ccc(CN2C(=O)CC(Cc3ccccc3)C2=O)cc1 (stereo not shown) [AB00307412] | > 25 µg/mL | 21.1 µg/mL
